According to publication PMC6292510 (Molecular pharmaceutics, 2017):
Where two headings read alike, the source gives them in different places.

Legend:
[1] = target: human Ether-a-go-go-Related Gene (hERG) potassium channel (Homo sapiens, UniProt Q12809); experiment: Predictor hERG Fluorescence Polarization Assay; format: binding
[2] = system: neonatal rat ventricular cardiomyocytes (NRVCMs); experiment: MTT viability assay of neonatal rat ventricular cardiomyocytes; format: cell-based; conditions: 0, 50, 100 and 200 µM; 24 or 48 h of analog exposure
[3] = system: neonatal rat ventricular cardiomyocytes (NRVCMs); experiment: LIVE/DEAD assay of neonatal rat ventricular cardiomyocytes; format: cell-based; conditions: 50 μM; 12, 24 and 48 h; apparent beginning 12 to 24 h
[4] = Chromatographic hydrophobicity indexing; format: physicochemical; conditions: C18 RP-HPLC, rank among the test compounds
[5] = target: cytochrome P450 3A4 (CYP3A4) (Homo sapiens, UniProt P08684); experiment: P450-Glo CYP3A4; format: in vitro ADME; conditions: 400 μM (parent hexosamines)
cytochrome P450 3A4 (CYP3A4), sequence (P08684 whole entry): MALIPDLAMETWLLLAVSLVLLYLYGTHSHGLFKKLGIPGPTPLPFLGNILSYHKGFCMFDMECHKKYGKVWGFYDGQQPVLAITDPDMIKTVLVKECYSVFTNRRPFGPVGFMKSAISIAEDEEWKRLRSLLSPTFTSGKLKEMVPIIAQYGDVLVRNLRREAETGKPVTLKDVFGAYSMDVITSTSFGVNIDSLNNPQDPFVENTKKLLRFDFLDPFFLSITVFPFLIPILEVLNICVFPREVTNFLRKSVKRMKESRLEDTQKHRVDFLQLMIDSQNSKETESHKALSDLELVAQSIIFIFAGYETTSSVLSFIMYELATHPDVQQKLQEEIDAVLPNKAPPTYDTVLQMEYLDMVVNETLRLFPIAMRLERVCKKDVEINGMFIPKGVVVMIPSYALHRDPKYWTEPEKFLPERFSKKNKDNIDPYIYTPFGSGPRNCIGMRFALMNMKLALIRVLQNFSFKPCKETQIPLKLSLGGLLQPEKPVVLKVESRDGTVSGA

[6] = read-out: hERG inhibition, concentration range, Fig. 8B & C

human Ether-a-go-go-Related Gene (hERG) potassium channel, sequence (Q12809 whole entry): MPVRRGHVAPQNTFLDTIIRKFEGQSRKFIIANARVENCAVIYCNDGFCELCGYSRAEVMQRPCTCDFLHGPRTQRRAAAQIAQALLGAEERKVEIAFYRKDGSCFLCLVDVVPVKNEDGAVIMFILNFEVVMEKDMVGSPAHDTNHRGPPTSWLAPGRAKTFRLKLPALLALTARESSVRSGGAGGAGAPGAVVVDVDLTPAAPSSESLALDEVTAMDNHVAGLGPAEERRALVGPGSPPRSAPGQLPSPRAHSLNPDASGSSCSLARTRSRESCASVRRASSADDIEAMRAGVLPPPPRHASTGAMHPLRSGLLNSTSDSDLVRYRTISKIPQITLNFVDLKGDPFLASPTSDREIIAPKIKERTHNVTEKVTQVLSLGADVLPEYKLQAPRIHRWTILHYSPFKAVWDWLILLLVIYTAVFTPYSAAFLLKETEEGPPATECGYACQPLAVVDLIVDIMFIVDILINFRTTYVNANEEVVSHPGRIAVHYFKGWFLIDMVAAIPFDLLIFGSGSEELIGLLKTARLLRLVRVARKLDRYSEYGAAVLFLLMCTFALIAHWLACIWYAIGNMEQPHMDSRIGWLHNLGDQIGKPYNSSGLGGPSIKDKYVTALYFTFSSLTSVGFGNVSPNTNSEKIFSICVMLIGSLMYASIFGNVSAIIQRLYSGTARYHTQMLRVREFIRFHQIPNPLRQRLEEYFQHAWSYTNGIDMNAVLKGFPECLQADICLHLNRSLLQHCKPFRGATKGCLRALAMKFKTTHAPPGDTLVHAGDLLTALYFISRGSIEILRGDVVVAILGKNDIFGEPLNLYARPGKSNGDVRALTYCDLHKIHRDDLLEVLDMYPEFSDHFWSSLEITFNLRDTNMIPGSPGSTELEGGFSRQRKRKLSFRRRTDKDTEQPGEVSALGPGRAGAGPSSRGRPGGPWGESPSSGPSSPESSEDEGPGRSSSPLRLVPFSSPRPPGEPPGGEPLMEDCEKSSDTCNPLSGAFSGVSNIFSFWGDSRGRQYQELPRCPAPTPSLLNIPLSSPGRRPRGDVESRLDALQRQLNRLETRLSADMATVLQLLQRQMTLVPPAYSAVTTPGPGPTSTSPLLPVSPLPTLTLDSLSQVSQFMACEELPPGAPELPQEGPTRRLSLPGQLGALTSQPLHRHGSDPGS

SMILES | IC50 [1, 6] | NRVCM cell viability (MTT) [2] | cardiomyocyte cell death (LIVE/DEAD) [3] | further results
CCCC(=O)OC1O[C@H](CO)[C@@H](OC(=O)CCC)[C@H](OC(=O)CCC)[C@H]1NC(=O)CN=[N+]=[N-] (some centres unmarked) [1,3,4-O-Bu3GlcNAz] | – | – | – | IC50 ([1]; read-out: hERG inhibition IC50, fluorescence polarization, doses 69.7 pM to 1 mM): 2.85 µM
CCCC(=O)OC[C@H]1OC(O)[C@@H](NC(C)=O)[C@@H](OC(=O)CCC)[C@@H]1OC(=O)CCC (some centres unmarked) [3,4,6-O-Bu3ManNAc] | 1 to 100 µM | significantly reduced NRVCM cell viability | Significantly higher cell death | fold greater hERG potency versus 3,4,6-O-Bu3GlcNAc ([1]; ManNAc analog versus GlcNAc analog): ~ 13 fold
CCCC(=O)OC1OC(CO)[C@@H](OC(=O)CCC)[C@H](OC(=O)CCC)C1NC(C)=O (some centres unmarked) [1,3,4-O-Bu3GlcNAc] | – | – | – | hERG inhibition (detectable or not) ([1]; up to 1 mM, the highest concentration tested): no detectable inhibition
CCCC(=O)OC1OC(CO)[C@@H](OC(=O)CCC)[C@H](OC(=O)CCC)C1NC(=O)CN=[N+]=[N-] (some centres unmarked) [1,3,4-O-Bu3ManNAz] | – | – | – | lipophilicity rank by experimental CHI score [4]: second highest lipophilicity
CC(=O)N[C@H]1[C@@H](O)[C@H](O)[C@@H](CO)O[C@@H]1O [ManNAc] | – | – | – | effect on CYP3A4 [5]: negligible effect
CCCC(=O)OC[C@H]1OC(O)[C@H](NC(C)=O)[C@@H](OC(=O)CCC)[C@@H]1OC(=O)CCC (some centres unmarked) [3,4,6-O-Bu3GlcNAc] | 1 to 100 µM | significantly reduced NRVCM cell viability | Significantly higher cell death | –
